Legend:
[1] = test system: mouse ESC-derived endoderm / anterior foregut endoderm cells; conditions: after 2 days TGFβ inhibition, then BMP4/FGF2/WNT agonist cocktail 2 days
Source text: Dorsomorphin inhibits BMP signaling through the SMAD pathway while PD98059 inhibits MAPK signaling.
A recent report described a monolayer-based strategy using synergistic activation of Nodal and Wnt-β-catenin signaling as well as staged BMP4 inhibition to direct mouse ES cells towards an endoderm fate with high efficiency (Sherwood et al., 2011). This technology was adapted herein to generate definitive endoderm (DE) from mouse ES cells. […] Snoeck and colleagues reported that Noggin (a BMP inhibitor) synergized with SB431542 (a TGFβ inhibitor) to suppress a posterior endoderm fate (Cdx2+) in favor of an anterior endoderm fate (Sox2+) (Green et al., 2011). […] Endoderm was treated with combinations of Activin (a TGFβ agonist), A-83-01 (a TGFβ antagonist), BMP4, and Dorsomorphin (a BMP4 antagonist) for 2 days (FIG. 2B). The number of FoxA2+Sox2+ anterior endoderm cells was compared to the total number of FoxA2+ endoderm cells (FIG. 2B). The treated cells were further exposed to the BMP4/FGF2/WNT agonist cocktail for another 2 days to examine their competence to generate Nkx2.1+ cells (FIG. 2B). […] It was tested if their inhibition would enhance anteriorization together with a TGFβ inhibitor.
The expression of lung and other anterior cell fate lineage genes including FoxN1 (thymus), Pax8 (thyroid), and Pax9 and Tbx1 (pharyngeal pouch endoderm) was analyzed by real-time qPCR (Figure S4A).
It was tested if BMP4, FGF2, and WNT signaling are each required to specify lung endoderm from the anterior foregut in an in vitro mouse ESC differentiation system. To do this, anteriorized endoderm cells were exposed to combinations of BMP4, FGF2 and WNT agonists and antagonists (FIGS. 3A and B).
These complexes translocate to the nucleus and activate expression of target genes (von Bubnoff and Cho, 2001; Chen et al., 2004; Sieber et al., 2009; Miyazono et al., 2010). Besides Smad1/5/8-mediated transcription, BMP-induced receptor complexes can activate the mitogen-activated protein kinase (MAPK) pathway via ERK, […] or p38 (Kozawa et al., 2002).
Mouse Endoderm Anteriorization and Nkx2.1 Cell Differentiation: Mouse definitive endoderm was generated as described herein. To anteriorize endoderm, on and after day 5, the cells were split and re-seeded on to the plates pre-coated with 804G-conditioned medium and fed with DO medium+0.5-1 μM A8301 (CalBiochem, 616454) for 2 days.

[2] = test system: human Cystic Fibrosis iPSC-derived definitive endoderm cells; test: Anteriorization of human Cystic Fibrosis iPSC-derived definitive endoderm (SOX2 induction); format: cell-based
Description: FIG. 6 is a schematic depicting an exemplary strategy and time line to generate Nkx2.1+ lung multipotent progenitors from human iPSCs. Data from the experiment indicate a step-wise differentiation of Nkx2.1+ lung progenitors from human iPSCs. A high yield of definitive endoderm from CF1 RiPS cells was obtained after treatment for 4 days in RPMI-1640 media in the presence of 2% B27 supplement, Activin A (100 ng/ml) and 5 μM PI3 Kinase inhibitor LY294002 with more than 90% of cells co-expressing transcription factors SOX17 and FOXA2 (data not shown). Anteriorization of endoderm into foregut endoderm cells was observed by detecting SOX2 expression in Foxa2+ cells derived from CF1 RiPS cells after 4 days of treatment with 500 nM A-83-01 (TGFβ antagonist) and 100 ng/ml Noggin (BMP4 antagonist) (data not shown). NKX2.1 staining was performed after anteriorization to foregut cells at D8 with serum-free medium containing 20 ng/ml BMP4, 20 ng/ml FGF2 and 5 nM GSK3iXV for 4 days (data not shown). […] In addition, confocal images following immunofluorescence staining indicates some Nkx2.1+ sphere contain basal cells positive for p63 (data not shown).
By using anteriorization conditions similar to Green et al., the induction of SOX2 expression in DE cells was obtained with efficiencies of up to 50%-60% after 4 days of treatment with A-83-01 (a TGFβ antagonist; data not shown). […]

[3] = test system: mouse ES cell-derived definitive endoderm; test: Anteriorization of mouse ESC-derived definitive endoderm to FoxA2+Sox2+ anterior foregut endoderm; format: cell-based; conditions: TGFβ inhibition, 2 days
Description: This technology was adapted herein to generate definitive endoderm (DE) from mouse ES cells. […] Next, it was asked if the newly generated DE cells have the competence to generate Nkx2.1+ cells. […] Since the inventors had already incorporated BMP inhibition during DE generation (FIG. 7), the question whether continuous BMP inhibition is necessary for anteriorization or if TGFβ inhibition alone was sufficient for anterior patterning was explored. Endoderm was treated with combinations of Activin (a TGFβ agonist), A-83-01 (a TGFβ antagonist), BMP4, and Dorsomorphin (a BMP4 antagonist) for 2 days (FIG. 2B). The number of FoxA2+Sox2+ anterior endoderm cells was compared to the total number of FoxA2+ endoderm cells (FIG. 2B). The treated cells were further exposed to the BMP4/FGF2/WNT agonist cocktail for another 2 days to examine their competence to generate Nkx2.1+ cells (FIG. 2B). […] It was tested if their inhibition would enhance anteriorization together with a TGFβ inhibitor.
Mouse Endoderm Anteriorization and Nkx2.1 Cell Differentiation: Mouse definitive endoderm was generated as described herein. To anteriorize endoderm, on and after day 5, the cells were split and re-seeded on to the plates pre-coated with 804G-conditioned medium and fed with DO medium+0.5-1 μM A8301 (CalBiochem, 616454) for 2 days. Then the media was rinsed with DO medium 2 times and switched to DO medium supplemented with 50 ng/ml BMP4, 100 ng/ml FGF2 (GIBCO, PHG0026), and 5-10 nM GSK3iXV for another 2-3 days. To generate Nkx2.1+Sox2+ proximal progenitor cells, the cells were rinsed with DO medium 2 times and switched to DO medium containing RA-supplemented B27, 50 ng/ml BMP7, 50 ng/ml FGF7, 100 nM IWR-1, and 1-2 μM PD98059 for 2 days or longer times.
Immunofluorescence: At each differentiation step, the cells were fixed with fresh paraformaldehyde (4%) for 15 min at room temperature, rinsed in PBS, washed with PBS+0.2% Triton X-100 and incubated with the primary antibodies at 4° C. overnight (>16 hrs) diluted in PBS+1% BSA. Following incubation, the cells were rinsed 4 times PBS+0.2% Triton X-100, and incubated with secondary antibodies at room temperature for 2 hours. The images were visualized using an Olympus IX71 inverted fluorescence microscope or a Nikon A1 Confocal Laser microscope.
The secondary antibodies were purchased from Invitrogen (AlexaFluor-549 and AlexaFluor-488). The quantification was performed by counting at least 5 random fields at 20× magnification and calculating the average and standard deviation.

human iPSC and ESC lines = test: Definitive endoderm generation from human iPSC/ESC (FOXA2/SOX17 co-staining); format: cell-based; conditions: screen of multiple PI3K inhibitors (LY-294002, ZSTK474, Wortmannin, PI828, NVP-BKM120, PIK-75)
Description: The endoderm is one of the three primary germ cell layers in the embryo. It forms the embryonic gut which in turn gives rise to the epithelia of the lungs and digestive organs. Therefore, the first essential step for directing human iPSC towards a lung lineage is to generate endoderm cells, preferably with high efficiency. […] For example, the current published protocol (Mou et al., 2012; RPMI+2% B27+100 ng/ml TGF-beta agonist Activin A+5 uM LY-294002 PI3K Inhibitor) is effective in several human iPSC and ESC lines with definitive endoderm efficiency higher than 90%. In some “difficult” or “resistant” cell lines, this same protocol generates definitive endoderm that varies between low efficiency (<30%) to medium efficiency (40-70%). […] Therefore, this protocol is much more cost-effective than prior protocols. […]
This protocol permits a remarkable 90% or greater, including 91%, 92%, 93%, 94%, 95%, 96%, 97%, and even as high as 98% or more, of human iPSC/ESC cells to be converted into definitive endoderm cell as determined by nuclear staining for the transcription factors Foxa2 and Sox17. […] Furthermore, this protocol can be universally applied to multiple cell lines including several “difficult” cell lines that were determined to have low efficiency of definitive endoderm generation. […]

Cc1cccc(-c2nn(C(=S)Nc3ccccc3)cc2-c2ccnc3ccccc23)n1 [A-83-01]
Nkx2.1+ cells (of total cells) [1]: 7%-13
induction of SOX2 expression in DE cells, efficiency ([2]; 4 days of treatment): 50%-60
FoxA2+Sox2+ anterior endoderm (of total FoxA2+ cells) [3]: 40%-55

FC(F)c1nc2ccccc2n1-c1nc(N2CCOCC2)nc(N2CCOCC2)n1 [ZSTK474]
potency for definitive endoderm generation (human iPSC and ESC lines): most potent

B1: Noggin: a BMP4 antagonist (protein, UniProt Q13253 28-232, looked up)
Noggin: QHYLHIRPAPSDNLPLVDLIEHPDPIFDPKEKDLNETLLRSLLGGHYDPGFMATSPPEDRPGGGGGAAGGAEDLAELDQLLRQRPSGAMPSEIKGLEFSEGLAQGKKQRLSKKLRRKLQMWLWSQTFCPVLYAWNDLGSRFWPRYVKVGSCFSKRSCSVPEGMVCKPSKSVHLTVLRWRCQRRGGQRCGWIPIQYPIISECKCSC
requirement for anteriorization [2]: not necessary
